Active and inactive are the calls of the source.
Legend:
[1] = test system: H4; test: Luminescence Cell-Based Dose Response HTS to Identify Activators of 5'UTR Stem-Loop Driven Prion Protein mRNA Translation in H4 Neuroglioblastoma Cells. [Related pubchem assays: 1829 (Project Summary), 1814 (Primary HTS)]; assay type: functional; details: Homo sapiens
[2] = Luminescence Cell-Based Dose Response HTS to Identify Activators of Luciferase Translation or Activity in H4 […] Cells. [Related pubchem assays: 1829 (Project Summary), 1814 (Primary HTS)]; assay type: functional
[3] = Luminescence Cell-Based Dose Confirmation HTS to Identify Activators of 5'UTR Stem-Loop Driven Alpha-Synuclein mRNA Translation in H4 Neuroglioblastoma Cells. [Related pubchem assays: 1829 (Project Summary), 1814 (Primary HTS)]; assay type: functional
[4] = cytotoxicity toward NIH3T3 fibroblasts, dose response, counter-screen, cell-based, ATP luminescence, mouse fibroblasts (AID 2010); assay type: functional;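 further: cells exposed to compound for about 90 hours before reading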
[5] = inhibitors of intracellular T. cruzi replication, confirmation, NIH3T3 host cells, beta-gal luminescence (AID 2044); assay type: functional, cell-based;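 further: intracellular parasites grown in NIH/3T3 mouse fibroblasts as host cells; luminescent beta-galactosidase reporter signal from transgenic T. cruzi replicating inside host cells; inhibitors lower the luminescence signal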
[6] = target: T1, Microphthalmia-associated transcription factor (Homo sapiens, UniProt O75030); test: TRPM1 promoter luciferase signal decrease, dose response, MITF inhibitor project, cell-based, SK-MEL-5, cherry-picked, set 3 (AID 493073); assay type: functional
T1 sequence (O75030 whole entry): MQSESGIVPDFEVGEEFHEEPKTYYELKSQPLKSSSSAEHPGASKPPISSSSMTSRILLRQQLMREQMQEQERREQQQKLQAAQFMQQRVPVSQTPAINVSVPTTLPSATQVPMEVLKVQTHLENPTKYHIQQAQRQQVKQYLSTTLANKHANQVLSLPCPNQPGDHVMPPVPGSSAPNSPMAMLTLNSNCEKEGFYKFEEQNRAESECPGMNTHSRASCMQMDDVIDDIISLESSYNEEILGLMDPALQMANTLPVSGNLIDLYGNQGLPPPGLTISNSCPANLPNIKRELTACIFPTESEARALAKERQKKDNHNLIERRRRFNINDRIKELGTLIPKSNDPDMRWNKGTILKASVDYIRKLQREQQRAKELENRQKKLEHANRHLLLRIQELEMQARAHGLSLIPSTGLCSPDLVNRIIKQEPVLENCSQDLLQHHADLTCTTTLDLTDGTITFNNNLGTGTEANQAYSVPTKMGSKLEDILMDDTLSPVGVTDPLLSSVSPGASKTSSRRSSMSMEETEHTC

[7] = inhibitors of clade B AD8 Env fusion, dose response, cell-based, cherry-pick (AID 652062); assay type: functional;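 further: luciferase signal from cell-cell fusion driven by HIV-1 clade B AD8 Env; potency is for inhibitors of fusion seen as a drop in luminescence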
[8] = ZM109 Env clade C HIV-1 fusion inhibitors, dose response, HeLa effector, CEM target cells, luciferase, cherry-pick (AID 652058); assay type: functional, cell-based
[9] = inhibitors of HIV Env-driven cell fusion, dose response, cherry-pick (AID 652057); assay type: functional, cell-based
[10] = off-target signal loss in HeLa-CEM21 co-culture – HeLa F-luc CTL cells, cherry-picked, counter-screen for HIV-1 Env fusion inhibitor project, dose response (AID 652040); assay type: functional, cell-based;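 further: potency for signal decrease marking cytotoxic or nonspecific inhibition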
[11] = target: T2, Histone-lysine N-methyltransferase NSD2 (Homo sapiens, UniProt O96028); assay type: biochemical
T2 sequence (O96028 whole entry): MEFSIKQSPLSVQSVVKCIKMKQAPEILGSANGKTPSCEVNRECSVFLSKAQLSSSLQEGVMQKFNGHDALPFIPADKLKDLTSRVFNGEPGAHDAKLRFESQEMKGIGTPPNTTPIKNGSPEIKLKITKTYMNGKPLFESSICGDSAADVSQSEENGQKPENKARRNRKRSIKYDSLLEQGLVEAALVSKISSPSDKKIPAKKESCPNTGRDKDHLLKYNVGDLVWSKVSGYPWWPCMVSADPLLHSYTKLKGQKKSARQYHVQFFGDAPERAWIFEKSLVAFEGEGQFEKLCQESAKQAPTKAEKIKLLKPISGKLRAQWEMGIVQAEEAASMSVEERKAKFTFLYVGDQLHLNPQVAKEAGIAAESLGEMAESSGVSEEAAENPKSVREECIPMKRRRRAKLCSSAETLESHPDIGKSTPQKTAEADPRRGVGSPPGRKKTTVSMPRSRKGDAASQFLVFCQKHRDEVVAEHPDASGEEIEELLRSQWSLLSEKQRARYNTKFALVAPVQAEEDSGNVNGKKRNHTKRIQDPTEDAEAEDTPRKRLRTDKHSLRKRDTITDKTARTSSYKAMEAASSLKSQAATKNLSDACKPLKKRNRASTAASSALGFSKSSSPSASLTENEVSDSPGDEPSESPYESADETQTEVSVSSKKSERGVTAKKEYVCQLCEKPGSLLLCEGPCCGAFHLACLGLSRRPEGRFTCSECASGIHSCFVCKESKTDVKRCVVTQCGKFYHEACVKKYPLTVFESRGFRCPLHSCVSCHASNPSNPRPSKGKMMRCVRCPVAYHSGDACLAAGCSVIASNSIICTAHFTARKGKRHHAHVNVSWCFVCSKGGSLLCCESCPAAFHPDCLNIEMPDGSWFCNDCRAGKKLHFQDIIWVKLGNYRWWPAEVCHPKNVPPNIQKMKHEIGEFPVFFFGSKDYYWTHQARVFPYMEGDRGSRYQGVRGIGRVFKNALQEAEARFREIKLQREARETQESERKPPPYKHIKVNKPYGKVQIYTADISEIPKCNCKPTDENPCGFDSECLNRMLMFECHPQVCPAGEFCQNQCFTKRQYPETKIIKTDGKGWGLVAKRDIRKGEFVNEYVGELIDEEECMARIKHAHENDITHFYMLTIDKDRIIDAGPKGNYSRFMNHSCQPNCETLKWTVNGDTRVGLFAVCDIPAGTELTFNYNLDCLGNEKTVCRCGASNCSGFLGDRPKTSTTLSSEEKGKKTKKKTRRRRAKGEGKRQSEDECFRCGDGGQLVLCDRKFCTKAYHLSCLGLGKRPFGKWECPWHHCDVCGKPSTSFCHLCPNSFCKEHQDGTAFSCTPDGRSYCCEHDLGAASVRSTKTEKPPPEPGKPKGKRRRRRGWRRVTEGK

[12] = target: T3, Rac GTPase-activating protein 1 (Homo sapiens, UniProt Q9H0H5); test: MgcRacGAP GTPase-activating activity inhibitors, confirmation, biochemical, ADP Hunter fluorescence, primary and confirmatory (AID 624330); assay type: functional
T3 sequence (Q9H0H5 whole entry): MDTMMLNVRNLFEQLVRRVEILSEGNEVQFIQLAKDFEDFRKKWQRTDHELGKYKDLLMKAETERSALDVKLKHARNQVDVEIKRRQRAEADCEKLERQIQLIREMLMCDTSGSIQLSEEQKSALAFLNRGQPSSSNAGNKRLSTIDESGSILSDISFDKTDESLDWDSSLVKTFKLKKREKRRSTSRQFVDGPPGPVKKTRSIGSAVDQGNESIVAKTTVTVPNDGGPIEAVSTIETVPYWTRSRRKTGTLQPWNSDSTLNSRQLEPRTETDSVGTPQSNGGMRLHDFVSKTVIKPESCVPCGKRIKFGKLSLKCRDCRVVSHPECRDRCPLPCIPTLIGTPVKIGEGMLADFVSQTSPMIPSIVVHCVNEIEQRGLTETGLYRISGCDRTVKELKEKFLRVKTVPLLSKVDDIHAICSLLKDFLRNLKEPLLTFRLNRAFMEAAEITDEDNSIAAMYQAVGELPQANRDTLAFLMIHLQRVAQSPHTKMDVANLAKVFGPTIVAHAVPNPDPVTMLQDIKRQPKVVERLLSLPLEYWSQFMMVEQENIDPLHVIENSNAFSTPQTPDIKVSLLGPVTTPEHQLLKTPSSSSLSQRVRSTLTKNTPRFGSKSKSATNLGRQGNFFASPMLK

[13] = target: Glyceraldehyde-3-phosphate dehydrogenase (Homo sapiens, UniProt P04406)
[14] = Luminescence Cell-Based Dose Retest to Confirm Inhibitors of Cancer Stem Cells. [Related pubchem assays (depositor defined):AID2717, AID2721]; assay type: functional; details: Homo sapiens
[15] = cytotoxicity in HEK-293T cells, dose response, cytotoxicity control for TCR NF-kB inhibitor project, luminescence, T-cell screen hits (AID 489026); assay type: functional, cell-based;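 further: cells exposed to compound about 14 hours before the viability readout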
[16] = control 3'UTR Renilla luciferase suppression, dose response, counter-screen for Shn3 inhibitor project, cell-based, Clone20-Shn3RL, cherry-picked (AID 624133); assay type: functional
[17] = HepG2 cell cytotoxicity, dose response, cytotoxicity control for Shn3 inhibitor project, CellTiter-Glo, cherry-picked (AID 624134); assay type: functional, cell-based
[18] = Shn3 3'UTR reporter inhibitors, dose response, cell-based, Clone20 osteoblasts, firefly luciferase, cherry-picked (AID 624132); assay type: functional;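 further: firefly luciferase luminescence from reporter carrying the Shn3 3'UTR in osteoblasts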
[19] = target: Cytochrome P450 2C9 (Homo sapiens, UniProt P11712)
[20] = Vero E6 cell cytotoxicity, dose response, cytotoxicity control for non-replicating M. tuberculosis project, secondary assay (AID 492998); assay type: functional, VeroE6; details: Vero C1008
[21] = cells; assay type: functional
[22] = P. falciparum Dd2 growth inhibitors, dose response, SYBR Green, cherry-picked samples (AID 1159567); assay type: functional, cell-based

Chain of Glyceraldehyde-3-phosphate dehydrogenase (P04406 whole entry): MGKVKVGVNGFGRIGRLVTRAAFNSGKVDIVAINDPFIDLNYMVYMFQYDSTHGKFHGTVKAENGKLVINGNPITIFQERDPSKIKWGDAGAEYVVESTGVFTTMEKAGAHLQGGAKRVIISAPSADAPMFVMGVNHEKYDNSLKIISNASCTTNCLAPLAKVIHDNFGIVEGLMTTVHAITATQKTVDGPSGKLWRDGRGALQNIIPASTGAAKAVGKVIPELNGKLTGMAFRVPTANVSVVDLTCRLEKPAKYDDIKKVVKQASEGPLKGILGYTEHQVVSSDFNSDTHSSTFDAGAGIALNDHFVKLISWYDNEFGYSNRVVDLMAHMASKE
Chain of Cytochrome P450 2C9 (P11712 whole entry): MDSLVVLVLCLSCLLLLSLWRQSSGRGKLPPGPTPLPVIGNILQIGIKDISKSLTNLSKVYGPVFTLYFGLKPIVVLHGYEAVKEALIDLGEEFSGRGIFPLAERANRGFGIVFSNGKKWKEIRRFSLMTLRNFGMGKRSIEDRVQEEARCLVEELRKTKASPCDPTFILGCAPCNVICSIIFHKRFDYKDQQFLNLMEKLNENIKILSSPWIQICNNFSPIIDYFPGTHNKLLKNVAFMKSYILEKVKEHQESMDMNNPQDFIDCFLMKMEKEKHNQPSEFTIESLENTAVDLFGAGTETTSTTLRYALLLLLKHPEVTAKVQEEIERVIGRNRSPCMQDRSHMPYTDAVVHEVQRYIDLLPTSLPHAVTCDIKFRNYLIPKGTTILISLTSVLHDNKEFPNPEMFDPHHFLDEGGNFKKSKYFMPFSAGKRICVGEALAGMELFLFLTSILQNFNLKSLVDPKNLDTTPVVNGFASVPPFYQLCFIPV

O=C(CSc1ccc(-c2ccccc2)nn1)Nc1ccc2c(c1)OCCO2
EC50 [1]: > 120 µM (not active) | EC50 [2]: 13.1 µM (active) | EC50 [3]: 7.15 µM (active)

O=C(Nc1ccc(N2CCN(C(=O)c3ccc(Cl)cc3)CC2)cc1)c1ccc([N+](=O)[O-])o1
EC50 [4]: 32.8 µM (active) | EC50 [5]: 1.81 µM (active) | AC50 [6]: 7.32 µM (active)

CC(C)(C)N1C(=O)[C@H]2[C@@H](c3ccc(Br)cc3)N3C(=O)N(c4cccc(Cl)c4)C(=O)[C@@]3(C)[C@H]2C1=O
AC50 [7]: 3.2 µM (active) | AC50 [8]: 0.542 µM (active) | AC50 [9]: 0.464 µM (active) | AC50 [10]: 0.843 µM (active)

Cc1ccc(N2C(=O)c3[nH]nc(C)c3C2c2ccco2)cc1 (stereo not given)
EC50 [1]: 17.9 µM (inconclusive) | EC50 [2]: 48.5 µM (active) | EC50 [3]: > 120 µM (not active)

O=[N+]([O-])c1ccccc1Nc1ccc(O)cc1
AC50 [11]: > 20 µM (inactive) | IC50 [12]: 22.6 µM (active)

C=CCNC(=O)c1ccc(OC2CCN(S(=O)(=O)N(C)C)CC2)cc1
EC50 [1]: 25.6 µM (active) | EC50 [2]: 15.2 µM (active) | EC50 [3]: 16.9 µM (active)

COc1cccc(CC(CC(=O)O)C(=O)O)c1 (stereo not given)
IC50 [13]: > 100 µM (not active)

Cc1cc2c(cc1C)C(c1ccccc1OC(C)C)CC(=O)N2 (stereo not given)
AC50 [14]: 0.796 µM (active) | IC50 [15]: 62.2 µM (inactive)

CC(C)N1C(=O)CC(Nc2ccc(N3CCOCC3)cc2)C1=O (stereo not given)
EC50 [1]: > 120 µM (not active) | EC50 [2]: 29.1 µM (active) | EC50 [3]: > 120 µM (not active)

CC(=O)Nc1nnc(SCc2cccc3ccccc23)[nH]1
IC50 [13]: > 100 µM (not active)

C[C+](C)[N-]Oc1cc(NC(=O)CCl)cc([N+](=O)[O-])c1
AC50 [6]: 6.18 µM (active)

CCOC(=O)N1CCC(NC(=O)C2CCCN(Cc3nc(-c4cccc(C)c4)oc3C)C2)CC1 (stereo not given)
AC50 [16]: 7.52 µM (active) | AC50 [6]: 34.9 µM (active) | AC50 [17]: 55.6 µM (active) | AC50 [18]: 3.06 µM (active)

COc1ccc(C)c(Cn2c(-c3nonc3N)nc3ccccc32)c1
IC50 [15]: > 80 µM (inactive)

Cn1c(-c2ccc3c(c2)OCO3)cnc1NCc1ccccc1
EC50 [1]: 39.9 µM (active) | EC50 [2]: 6.69 µM (active) | AC50 [19]: 31.6 µM (inconclusive) | EC50 [3]: 14.6 µM (active)

O=C(NCc1cccs1)C1CCN(c2ccc(S(=O)(=O)N3CCOCC3)cc2Cl)CC1
IC50 [15]: > 80 µM (inactive)

COc1cc(/C=C2/SC(=S)NC2=O)cc(Cl)c1OCc1ccc(Cl)cc1Cl
IC50 [13]: > 100 µM (not active)

Cc1cc(C)n2[nH]c(=O)c(N=Nc3cccc(Cl)c3)c2n1
CC50 [20]: > 20 µM (active) | IC50 [21]: 17.7 µM (active)

Cc1cccc2cc(/C=C3\N=C(c4ccccc4)OC3=O)c(N(C)C)nc12
IC50 [13]: > 100 µM (not active)

CN(C)c1cccc2c(S(=O)(=O)Nc3ccccn3)cccc12
AC50 [11]: 15.3 µM (active)

CCN(CC)CCNC(=O)c1c(C)[nH]c(/C=C2\C(=O)Nc3ccc(F)cc32)c1C
AC50 [11]: > 20 µM (inactive)

N#Cc1ccc(-c2ccc3c(c2)[C@@H]2[C@@H](CCN2C(=O)C2CCC2)[C@@H](CO)N3)cc1
AC50 [22]: 9.93 µM (active)

Cc1ccc(S(=O)(=O)N(C)C[C@H]2Oc3ccc(NC(=O)c4ccncc4)cc3C(=O)N([C@@H](C)CO)C[C@@H]2C)cc1
AC50 [22]: 8.41 µM (active)

COc1cc(C)c(Cl)cc1S(=O)(=O)Nc1cccnc1
IC50 [13]: > 10 µM (inconclusive)

Reference: ChEMBL document CHEMBL1201862, “PubChem BioAssay data set” (2004)
